Measurements as given in ChEMBL document CHEMBL6087440, “Catalytic Lysine745 targeting strategy in fourth-generation EGFR tyrosine kinase inhibitors to address C797S mutation resistance” (Eur J Med Chem, 2025).

Experiments:
[1] = biological target: Epidermal growth factor receptor (Homo sapiens, UniProt P00533); assay: Inhibition of wild type EGFR (unknown origin)
[2] = biological target: Epidermal growth factor receptor (Homo sapiens, UniProt P00533, C797S/L858R/T790M); assay: Inhibition of EGFR L858R/T790M/C797S triple mutant (unknown origin)
[3] = biological target: Epidermal growth factor receptor (Homo sapiens, UniProt P00533, C797S/EX19DEL/T790M); assay: Inhibition of EGFR del19/T790M/C797S triple mutant (unknown origin) in presence of ATP by FRET assay
[4] = Antiproliferative activity against human NCI-H1975 cells harboring EGFR L858R/T790M/C797S mutant assessed as reduction in cell growth incubated for 72 hrs by SRB assay; type: functional, cell-based; conditions: NCI-H1975, 72 h
[5] = biological target: Tyrosine-protein kinase BTK (Homo sapiens, UniProt Q06187); assay: Inhibition of wild type BTK (unknown origin) using TK as substrate incubated for 1 hr by HTRF assay
BaF3 = assay: Antiproliferative activity against mouse BaF3 cells harboring EGFR L858R/T790M/C797S triple mutant assessed as inhibition of cell growth incubated for 72 hrs by CellTiter-Glo luminescent assay; type: functional, cell-based; conditions: BaF3, 72 h
[6] = Antiproliferative activity against human NCI-H1975 cells harboring EGFR L858R/T790M mutant assessed as cell growth inhibition incubated for 72 hrs by CellTiter Glo assay; type: functional, cell-based; conditions: NCI-H1975, 72 h
[7] = Antiproliferative activity against mouse Ba/F3 EGFR-T790M/C797S/L858R cells; type: functional, cell-based
[8] = Intrinsic clearance in human liver microsomes; type: ADME, Microsome
[9] = Clearance in cynomolgus monkey at 1 mg/kg, iv by LC-MS/MS analysis; type: ADME, organism-based, Macaca fascicularis; conditions: in vivo
A549 = assay: Antiproliferative activity against human A549 cells harboring wild type EGFR assessed as inhibition of cell proliferation incubated for 72 hrs by CCK8 assay; type: functional, cell-based; conditions: A549, 72 h

Chain of Epidermal growth factor receptor (Homo sapiens, UniProt P00533, C797S/EX19DEL/T790M) (P00533 whole entry, looked up, stated change not applied): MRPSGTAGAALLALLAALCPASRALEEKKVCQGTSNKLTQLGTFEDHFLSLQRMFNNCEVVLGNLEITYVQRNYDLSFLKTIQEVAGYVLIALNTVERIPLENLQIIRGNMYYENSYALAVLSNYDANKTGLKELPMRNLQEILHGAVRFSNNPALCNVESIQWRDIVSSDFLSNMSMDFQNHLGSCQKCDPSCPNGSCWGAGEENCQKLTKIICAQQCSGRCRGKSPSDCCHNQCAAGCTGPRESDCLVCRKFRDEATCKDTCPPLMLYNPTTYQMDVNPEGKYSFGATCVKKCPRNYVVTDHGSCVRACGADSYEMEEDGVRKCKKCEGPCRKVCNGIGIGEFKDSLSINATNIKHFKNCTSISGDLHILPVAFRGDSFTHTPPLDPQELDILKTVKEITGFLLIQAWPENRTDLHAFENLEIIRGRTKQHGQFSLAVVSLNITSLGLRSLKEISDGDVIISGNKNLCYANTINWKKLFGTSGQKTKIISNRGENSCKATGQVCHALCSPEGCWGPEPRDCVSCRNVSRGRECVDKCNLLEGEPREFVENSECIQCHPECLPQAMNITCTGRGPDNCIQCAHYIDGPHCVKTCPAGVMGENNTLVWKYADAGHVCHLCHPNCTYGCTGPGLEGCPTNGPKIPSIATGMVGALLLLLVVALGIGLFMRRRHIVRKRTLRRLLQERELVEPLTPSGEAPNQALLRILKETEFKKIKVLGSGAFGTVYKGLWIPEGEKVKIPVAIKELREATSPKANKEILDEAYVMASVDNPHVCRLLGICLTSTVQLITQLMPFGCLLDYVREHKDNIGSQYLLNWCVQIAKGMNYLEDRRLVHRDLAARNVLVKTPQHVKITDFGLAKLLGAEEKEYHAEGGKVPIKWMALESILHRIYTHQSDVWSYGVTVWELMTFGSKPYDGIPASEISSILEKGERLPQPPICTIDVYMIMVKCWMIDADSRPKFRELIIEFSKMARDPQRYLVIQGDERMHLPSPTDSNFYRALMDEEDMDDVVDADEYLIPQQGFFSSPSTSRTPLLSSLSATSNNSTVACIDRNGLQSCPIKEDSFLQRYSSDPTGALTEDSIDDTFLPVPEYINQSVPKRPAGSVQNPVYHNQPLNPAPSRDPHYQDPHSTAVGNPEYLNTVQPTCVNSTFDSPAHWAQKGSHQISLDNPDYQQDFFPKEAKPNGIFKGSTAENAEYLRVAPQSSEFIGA
Chain of Epidermal growth factor receptor (Homo sapiens, UniProt P00533) (P00533 whole entry): as the sequence (P00533 whole entry, looked up, stated change not applied) above
Chain of Epidermal growth factor receptor (Homo sapiens, UniProt P00533, C797S/L858R/T790M) (P00533 25-1210 T790M/C797S/L858R limits assumed): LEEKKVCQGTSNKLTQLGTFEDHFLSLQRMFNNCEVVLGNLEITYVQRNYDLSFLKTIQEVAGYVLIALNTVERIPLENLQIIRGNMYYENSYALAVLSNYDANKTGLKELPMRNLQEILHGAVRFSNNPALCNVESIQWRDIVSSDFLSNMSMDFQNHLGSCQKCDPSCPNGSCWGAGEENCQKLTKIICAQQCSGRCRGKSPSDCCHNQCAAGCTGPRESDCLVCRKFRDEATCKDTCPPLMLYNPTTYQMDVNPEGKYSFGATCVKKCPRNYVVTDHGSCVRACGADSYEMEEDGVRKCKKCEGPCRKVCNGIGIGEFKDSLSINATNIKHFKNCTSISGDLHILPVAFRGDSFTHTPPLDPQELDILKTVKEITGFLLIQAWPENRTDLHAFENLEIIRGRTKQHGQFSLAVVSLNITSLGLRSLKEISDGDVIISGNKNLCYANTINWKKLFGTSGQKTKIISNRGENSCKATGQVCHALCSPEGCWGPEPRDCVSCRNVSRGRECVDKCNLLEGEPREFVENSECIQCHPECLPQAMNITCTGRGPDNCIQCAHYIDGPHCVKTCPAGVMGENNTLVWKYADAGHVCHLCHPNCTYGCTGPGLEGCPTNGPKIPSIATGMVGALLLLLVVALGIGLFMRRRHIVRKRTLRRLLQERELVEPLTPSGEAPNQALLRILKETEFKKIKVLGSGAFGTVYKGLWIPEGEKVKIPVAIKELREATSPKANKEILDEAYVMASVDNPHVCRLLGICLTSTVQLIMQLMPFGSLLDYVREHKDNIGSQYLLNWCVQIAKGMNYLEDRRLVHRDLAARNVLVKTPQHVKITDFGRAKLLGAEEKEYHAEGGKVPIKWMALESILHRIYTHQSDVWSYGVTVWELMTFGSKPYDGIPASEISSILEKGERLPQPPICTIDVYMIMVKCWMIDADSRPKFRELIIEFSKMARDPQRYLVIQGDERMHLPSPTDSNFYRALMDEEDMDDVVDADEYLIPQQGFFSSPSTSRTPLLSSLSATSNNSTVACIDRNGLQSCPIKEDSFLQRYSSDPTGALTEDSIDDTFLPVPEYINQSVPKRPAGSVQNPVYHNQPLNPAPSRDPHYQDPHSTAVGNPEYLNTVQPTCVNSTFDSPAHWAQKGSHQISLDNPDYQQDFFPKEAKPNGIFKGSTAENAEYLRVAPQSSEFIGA
Chain of Tyrosine-protein kinase BTK (Q06187 whole entry): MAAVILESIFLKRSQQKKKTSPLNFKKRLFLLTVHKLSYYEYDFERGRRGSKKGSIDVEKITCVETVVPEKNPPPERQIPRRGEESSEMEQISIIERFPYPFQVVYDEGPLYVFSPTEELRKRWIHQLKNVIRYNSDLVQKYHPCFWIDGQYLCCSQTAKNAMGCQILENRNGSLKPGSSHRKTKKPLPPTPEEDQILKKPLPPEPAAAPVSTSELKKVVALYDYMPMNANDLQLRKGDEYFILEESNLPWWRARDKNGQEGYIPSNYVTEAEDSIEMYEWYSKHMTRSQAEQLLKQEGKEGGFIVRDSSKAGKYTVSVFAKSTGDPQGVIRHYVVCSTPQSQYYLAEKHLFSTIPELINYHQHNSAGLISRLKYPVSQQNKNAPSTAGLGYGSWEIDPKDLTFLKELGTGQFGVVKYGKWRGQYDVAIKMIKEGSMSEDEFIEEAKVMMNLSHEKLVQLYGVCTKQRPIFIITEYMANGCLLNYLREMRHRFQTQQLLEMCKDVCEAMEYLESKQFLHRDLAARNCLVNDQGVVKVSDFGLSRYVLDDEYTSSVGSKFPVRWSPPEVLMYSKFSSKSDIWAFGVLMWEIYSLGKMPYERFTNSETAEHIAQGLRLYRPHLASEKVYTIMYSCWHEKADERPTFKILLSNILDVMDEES

Row | Structure (SMILES) | IC50 [3] | IC50 (BaF3) | other results
1 | C=CC(=O)Nc1ccc(OC)c(Nc2cc(-c3[nH]c(CCCO)nc3-c3ccc(F)cc3)ccn2)c1 | – | – | IC50 [1]: 8 nM
2 | OCCCc1nc(-c2ccc(F)cc2)c(-c2ccnc3[nH]c(-c4ccccc4)cc23)[nH]1 | – | – | IC50 [1]: < 0.5 nM
3 | CN1CCN(C2CCN(c3ccc(Nc4ncc(Cl)c(Nc5ccccc5P(C)(C)=O)n4)cc3Cl)CC2)CC1 | – | – | IC50 [2]: 0.7 nM
4 | CCP(=O)(CC)c1ccccc1Nc1nc(Nc2cc(-c3cnn(C)c3)c(N3CCOCC3)cc2OC)ncc1Cl | 0.2 nM | – | –
5 | Cc1cc(Nc2ncc(Cl)c(Nc3ccccc3P(C)(C)=O)n2)ccc1N1CCC(N2CCN(C)CC2)CC1 | – | – | IC50 [2]: 0.6 nM
6 | COc1cc(N2CCC(N(C)C)CC2)c(-c2cnn(C)c2)cc1Nc1ncc(Cl)c(Nc2ccccc2P(C)(C)=O)n1 | 0.19 nM | – | –
7 | COc1cc(N2CCOCC2)c(-c2cnn(C)c2)cc1Nc1ncc(Cl)c(Nc2ccccc2P(C)(C)=O)n1 | 0.2 nM | – | IC50 [4]: 0.122 nM; IC50 [5]: 4.4 nM
8 | COc1cc(N2CCC(N3CCN(C)CC3)CC2)c(-c2cnn(C)c2)cc1Nc1ncc(Cl)c(Nc2ccccc2P(C)(C)=O)n1 | 0.32 nM | – | –
9 | COc1cc(N2CCC(N(C)C)CC2)c(-c2cn[nH]c2)cc1Nc1ncc(Cl)c(Nc2ccccc2P(C)(C)=O)n1 | – | – | IC50 [2]: 0.5 nM
10 | CCS(=O)(=O)n1cc2c3cc(ccc31)OCCCCCCOc1cc(ccc1N1CCOCC1)Nc1ncc(Cl)c-2n1 | 6.2 nM | – | –
11 | CCS(=O)(=O)n1cc2c3ccc(cc31)OCCCCCCOc1cc(c(Cl)cc1N1CCOCC1)Nc1ncc(Cl)c-2n1 | 6.2 nM | – | –
12 | CCS(=O)(=O)n1cc(-c2nc(Nc3cc(Cl)c(N4CCC(N5CCN(C)CC5)CC4)cc3OC)ncc2Cl)c2ccccc21 | 24.2 nM | – | IC50 [2]: 145 nM
13 | CCS(=O)(=O)n1cc2c3ccc(cc31)OCCCCCCOc1cc(c(C3CC3)cc1N1CCOCC1)Nc1ncc(Cl)c-2n1 | 56.4 nM | – | –
14 | CCOC1CN(C2CCN(c3cc(OC)c(Nc4ncc(Br)c(Nc5ccc6nccnc6c5P(C)(C)=O)n4)cc3C)CC2)C1 | – | 29 nM | –
15 | COc1cc(N2CCC(N3CC(N(C)C)C3)CC2)c(C)cc1Nc1ncc(Br)c(Nc2ccc3nccnc3c2P(C)(C)=O)n1 | – | 12.7 nM | –
16 | CCS(=O)(=O)n1cc2c3ccc(cc31)OCCCCCOc1cc(ccc1N1CCOCC1)Nc1ncc(Cl)c-2n1 | 141 nM | – | –
17 | COc1cc(N2CCC(N3CCN(C)CC3)CC2)ccc1Nc1ncc(Cl)c(-c2cn(S(=O)(=O)C(C)C)c3ccccc23)n1 | 33.3 nM | – | IC50 [2]: 222 nM
18 | CCc1cc(Nc2ncc(Br)c(Nc3ccc4c(c3P(C)(C)=O)OCCO4)n2)c(OC)cc1N1CCC(N2CC(N(C)C)C2)CC1 | 0.08 nM | 8 nM | –
19 | CCS(=O)(=O)n1cc2c3ccc(cc31)OCCCCCCOc1cc(c(C)cc1N1CCOCC1)Nc1ncc(Cl)c-2n1 | 23.6 nM | – | –
20 | CCOC1CN(C2CCN(c3cc(OC)c(Nc4ncc(Br)c(Nc5ccc6c(c5P(C)(C)=O)OCCO6)n4)cc3C)CC2)C1 | – | 14 nM | –
21 | COc1cc(N2CCC(N3CCN(C)CC3)CC2)ccc1Nc1ncc(Cl)c(-c2cn(S(=O)(=O)C3CC3)c3ccccc23)n1 | 25.6 nM | – | IC50 [2]: 4.3 nM
22 | CCS(=O)(=O)n1cc2c3cc(ccc31)OCCCCCOc1cc(ccc1N1CCOCC1)Nc1ncc(Cl)c-2n1 | 19 nM | – | –
23 | CCc1cc(Nc2ncc(Br)c(Nc3ccc4c(c3P(C)(C)=O)OCO4)n2)c(OC)cc1N1CCC(N2CC(N(C)C)C2)CC1 | 0.15 nM | 40 nM | IC50 [2]: 0.4 nM
24 | CCS(=O)(=O)n1cc2c3ccc(cc31)OCCCCCCOc1cc(ccc1N1CCOCC1)Nc1ncc(Cl)c-2n1 | 57 nM | – | –
25 | CNC(=O)c1cnc(Nc2ccnc(N3CCC(O)CC3)n2)cc1NC(C)C | – | – | IC50 [6]: 46 nM
26 | COc1cc(N2CCC(N(C)C)CC2)ccc1Nc1ncc(C(=O)Oc2ccccc2)c(-c2c[nH]c3ccccc23)n1 | – | 7.1 nM | IC50 [1]: 0.01 nM
27 | COc1cc(N2CCN(C)CC2)ccc1Nc1ncc(C(=O)OC(C)C)c(-c2cn(C)c3ccccc23)n1 | – | 615 nM | –

Row | Structure (SMILES) | IC50 [3] | IC50 (BaF3) | other results
28 | COc1cc(N2CCN(C)CC2)ccc1Nc1ncc(C(=O)Oc2ccccc2)c(-c2cn(C)c3ccccc23)n1 | – | 94 nM | IC50 [1]: 0.05 nM
29 | COc1cc(N2CCC(N)CC2)ccc1Nc1ncc(C(=O)OC(C)C)c(-c2cn(C)c3ccccc23)n1 | – | 354 nM | –
30 | COc1cc(N2CCC(N3CC(C)(CO)C3)CC2)c(C)cc1Nc1ncc(Br)c(Nc2ccc3nccnc3c2P(C)(C)=O)n1 | – | 17.7 nM | –
31 | COc1cc(N2CCC(N3CC(CC#N)C3)CC2)c(C)cc1Nc1ncc(Br)c(Nc2ccc3nccnc3c2P(C)(C)=O)n1 | – | 12.7 nM | –
32 | COc1cc(N2CCC(N3CC(C(C)(C)O)C3)CC2)c(C)cc1Nc1ncc(Br)c(Nc2ccc3nccnc3c2P(C)(C)=O)n1 | – | 18 nM | –
33 | COc1cc(N2CCC(N3CC(F)(CO)C3)CC2)c(C)cc1Nc1ncc(Br)c(Nc2ccc3nccnc3c2P(C)(C)=O)n1 | – | 18.7 nM | –
34 | COCC1(C)CN(C2CCN(c3cc(OC)c(Nc4ncc(Br)c(Nc5ccc6nccnc6c5P(C)(C)=O)n4)cc3C)CC2)C1 | – | 22.3 nM | –
35 | COCC1CN(C2CCN(c3cc(OC)c(Nc4ncc(Br)c(Nc5ccc6nccnc6c5P(C)(C)=O)n4)cc3C)CC2)C1 | 0.7 nM | 15 nM | –
36 | COc1cc(N2CCC(N3CC(CO)C3)CC2)c(C)cc1Nc1ncc(Br)c(Nc2ccc3nccnc3c2P(C)(C)=O)n1 | – | 41 nM | –
37 | CN1CCCN(c2ccc(Nc3ncc(Br)c(Nc4ccccc4NS(=O)(=O)C4CC4)n3)cc2)CC1 | – | 5.6 nM | IC50 [1]: 0.61 nM
38 | Cc1cc(Nc2ncc(Br)c(Nc3ccccc3NS(=O)(=O)C3CC3)n2)ccc1N1CCCN(C)CC1 | – | – | IC50 [1]: 70.7 nM
39 | CN(C)C1CCN(c2ccc(Nc3ncc(Br)c(Nc4ccccc4NS(=O)(=O)C4CC4)n3)cc2NS(C)(=O)=O)CC1 | – | – | IC50 [7]: 780 nM
40 | Cc1cc(Nc2ncc(Cl)c(Nc3ccccc3NS(=O)(=O)C3CC3)n2)ccc1N1CCC(N(C)C)CC1 | – | – | IC50 [1]: 4.76 nM; IC50 [2]: 0.03 nM
41 | COC1CCN(c2nccc(Nc3cc4c(C(C)C)ccc(N5CC(CS(C)(=O)=O)C5C)c4cn3)n2)CC1F (stereo not given) | – | – | IC50 [4]: 1.1 nM; CLH [8]: 89 µL/min/mg
42 | CC(C)c1cnc(N2CC(O)C2C)c2cnc(Nc3ccnc(N4CCC(O)C(C)(F)C4)n3)cc12 (stereo not given) | – | – | IC50 [6]: 20 nM
43 | COCCCc1nc(-c2ccc(F)cc2)c(-c2ccnc3[nH]c(-c4ccccc4)cc23)[nH]1 | – | – | IC50 [1]: 6 nM; IC50 [2]: 6 nM
44 | CC(C)c1ccc(N2CC(CS(C)(=O)=O)C2C)c2cnc(Nc3ccnc(N4CCC(O)C(C)(F)C4)n3)cc12 (stereo not given) | – | – | clearance [9]: 31.8 mL/min/kg
45 | COc1cc(N2CCN(C)CC2)c(-c2cn[nH]c2)cc1Nc1ncc(Cl)c(Nc2ccccc2P(C)(C)=O)n1 | 0.23 nM | – | –
46 | CCS(=O)(=O)n1cc2c3cc(ccc31)OCCCCCCCCOc1cc(ccc1N1CCOCC1)Nc1ncc(Cl)c-2n1 | 89 nM | – | –
47 | CC(C)c1cnc(N2CC(CS(C)(=O)=O)C2)c2cnc(Nc3ccnc(N4CCC(O)C(C)(F)C4)n3)cc12 (stereo not given) | – | – | IC50 (A549): 5290 nM
48 | C=CC(=O)Nc1ccc(OC)c(Nc2cc(-c3[nH]c(SCCOC)nc3-c3ccc(F)cc3)ccn2)c1 | – | – | IC50 [2]: 35 nM
49 | CCS(=O)(=O)n1cc2c3cc(ccc31)OCCCCOc1cc(ccc1N1CCOCC1)Nc1ncc(Cl)c-2n1 | > 1000 nM | – | –
50 | COc1cc(N2CCN(C(C)=O)CC2)ccc1Nc1nccc(Nc2ccc(Nc3ccc(S(=O)(=O)F)cc3)cc2)n1 | – | – | IC50 [1]: 210 nM; IC50 [2]: 110 nM
51 | CCS(=O)(=O)n1cc2c3cc(ccc31)OCCCCCCCOc1cc(ccc1N1CCOCC1)Nc1ncc(Cl)c-2n1 | 19 nM | – | –
52 | CNc1ncc(C(C)C)c2cc(Nc3ccnc(N4CCC(O)C(F)C4)n3)ncc12 (stereo not given) | – | – | IC50 [6]: 12 nM
53 | CC(C)c1cnc(N2CCC2)c2cnc(Nc3ccnc(N4CCC(O)C(C)(F)C4)n3)cc12 (stereo not given) | – | – | IC50 [6]: 9.1 nM
54 | C=CC(=O)Nc1cc(Nc2ncc(C(=O)OC(C)C)c(-c3cn(C)c4ccccc34)n2)c(OC)cc1N(C)CCN(C)C [MOBOCERTINIB] | – | 271 nM | –
